Experimental data as given in patent publication US20230051589A1, “COMPOUNDS AND COMPOSITIONS FOR TREATING CONDITIONS ASSOCIATED WITH NLRP ACTIVITY” (Novartis AG, priority 2018, published 2023).
Read-outs that look alike come from different tables or passages of the source. Blank lines part the entries; values can stand above or below the compound they belong to.

Test system: IL-1β production in PMA-differentiated THP-1 cells
Assay: IL-1β production in PMA-differentiated THP-1 cells stimulated with gramicidin (hTHP-1 assay, 2% fetal bovine serum; Procedures 1-3)
Format: cell-based, human
Method in brief: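 IL-1β released into supernatants was read by HTRF after 2 h gramicidin (5 μM) challenge. Before challenge, compounds (3-fold dilutions, top 100 μM, 0.37% DMSO) were given 1 h on THP-1 cells differentiated with PMA (20 ng/ml, 16-18 h) and held in 2% FBS medium.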

[1] = hTHP-1 assay containing 2% fetal bovine serum, Table B2, class symbols, read-out: IC50
[2] = hTHP-1 assay containing 2% fetal bovine serum, Table B2, given as bound, read-out: IC50
[3] = Homo sapiens, THP-1, hTHP-1 assay containing 2% fetal bovine serum, Table B2, class symbols, read-out: IC50
[4] = Homo sapiens, THP-1, Table B3, hTHP-1 assay containing 2% fetal bovine serum, gramicidin stimulation, IL-1β readout, read-out: hTHP-1 IC50
[5] = Table B3, hTHP-1 assay containing 2% fetal bovine serum, gramicidin stimulation, IL-1β readout, read-out: hTHP-1 IC50

Compound: NS(=O)(=NC(=O)Nc1c2c(cc3c1CC3)CCC2)c1cnn2c1OCCC2 (single isomer, unassigned) [Example 547, (S) or (R)-N′-((2,4,5,6-tetrahydro-1H-cyclobuta[f]inden-3-yl)carbamoyl)-6,7-dihydio-5H-pyrazolo[5,1-b][1,3]oxazine-3-sulfonimidamide]
- IC50 [1]: 1000 to 5000 nM

Compound: CC(C)c1cc2c(cc1NC(=O)N=S(N)(=O)c1cnc(C(C)(C)O)s1)CCC2 (single isomer, unassigned) [Example 527, (S) or (R)-2-(2-hydroxypropan-2-yl)-N′-((6-isopropyl-2,3-dihydro-1H-inden-5-yl)carbamoyl) thiazole-5-sulfonimidamide]
- IC50 [1]: 1000 to 5000 nM

Compound: CC(C)c1cc2c(cc1NC(=O)N=S(N)(=O)c1cnc(C(C)(C)O)s1)CCC2 (single isomer, unassigned) [Example 526, (R) or (S)-2-(2-hydroxypropan-2-yl)-N′-((6-isopropyl-2,3-dihydro-1H-inden-5-yl)carbamoyl)thiazole-5-sulfonimidamide]
- IC50 [1]: 200 to 1000 nM

Compound: C[C@](O)(CO)c1ncc(S(N)(=O)=NC(=O)Nc2c3c(cc4c2C(=O)CC4)CCC3)s1 (some centres unmarked) [Compound 920c]
- IC50 [3]: 40 to 200 nM

Compound: COCCN(C)Cc1cccc(S(N)(=O)=NC(=O)Nc2c3c(cc4c2CCC4)CCC3)c1 (centres unmarked) [Example 504]
- IC50 [3]: 5000 to 30000 nM

Compound: CN(C)Cc1ccc([S@@](N)(=O)=NC(=O)Nc2c3c(cc4c2CCC4)CCC3)s1 [Compound 889b]
- IC50 [3]: 200 to 1000 nM

Compound: N[S@](=O)(=NC(=O)Nc1c2c(cc3c1CCC3)CCC2)c1ccc(C(F)F)nc1 (single isomer, unassigned) [Example 594, (S) or (R)-6-(difluoromethyl)-N′-((1,2,3,5,6,7-hexahydroxy-indacen-4-yl)carbamoyl) pyridine-3-sulfonimidamide]
- IC50 [2]: > 30000 nM

Compound: C[C@@](O)(CO)c1ncc([S@@](N)(=O)=NC(=O)Nc2c3c(cc4c2CC4)CCC3)s1 [Compound 919b]
- IC50 [3]: 8 to 40 nM

Compound: C=CCc1c2c(c(NC(=O)N=S(N)(=O)c3cc(C(C)(C)O)n(-c4ccccc4)n3)c3c1CCC3)CCC2 (centres unmarked) [Example 458, N′-((8-allyl-1,2,3,5,6,7-hexahydro-s-indacen-4-yl)carbamoyl)-5-(2-hydroxypropan-2-yl)-1-phenyl-1H-pyrazole-3-sulfonimidamide]
- IC50 [3]: 1000 to 5000 nM

Compound: C[C@](O)(CO)c1ncc([S@@](N)(=O)=NC(=O)Nc2c3c(cc4c2CC4)CCC3)s1 [Compound 919e]
- IC50 [3]: 8 to 40 nM

Compound: CC(C)(O)c1nc(CO)c([S@@](N)(=O)=NC(=O)Nc2c3c(cc4c2C(=O)CC4)CCC3)s1 [Compound 914a]
- IC50 [3]: 5000 to 30000 nM

Compound: CC(O)(CO)c1cc(F)c(S(N)(=O)=NC(=O)Nc2c3c(c(C#N)c4c2CCC4)CCC3)s1 (centres unmarked) [Compound 411]
- IC50 (Homo sapiens, THP-1, Table B1, hTHP-1 assay containing 2% fetal bovine serum, gramicidin stimulation, IL-1β readout, read-out: hTHP-1 IC50 (average)): 40 to 200 nM

Compound: N[S@@](=O)(=NC(=O)Nc1c2c(cc3c1CCC3)CCC2)c1ccc(C(F)F)nc1 (single isomer, unassigned) [Example 595, (R) or (S)-6-(difluoromethyl)-N′-((1,2,3,5,6,7-hexahydroxy-indacen-4-yl)carbamovl)pyridine-3-sulfonimidamide]
- IC50 [1]: 1000 to 5000 nM

More lines, now with the values ahead:

- IC50 [2]: > 30000 nM
Compound: CN(C)C(c1ccc(S(N)(=O)=NC(=O)Nc2c3c(cc4c2CCC4)CCC3)cc1)C(F)F (single isomer, unassigned) [Example 646, (R,S) or (S,S)-4-(-1-(dimethylamino)-2,2-difluoroethyl)-N′-((1,2,3,5,6,7-hexahydro-s-indacen-4-yl)carbamoyl) benzenesulfonimidamide]

- IC50 [3]: 8 to 40 nM
Compound: C[C@@](O)(CO)c1ncc([S@](N)(=O)=NC(=O)Nc2c3c(cc4c2CCC4)CCC3)s1 [Example 714, (R)-2-((R)-1,2-dihydroxypropan-2-yl)-N-((1,2,3,5,6,7-hexahydro-s-indacen-4-yl)carbamoyl)thiazole-5-sulfonimidamide]

- IC50 [4]: 8 to 40 nM
Compound: COc1cc(-c2ccc3c(c2NC(=O)N=[S@@](N)(=O)c2cnc(C(C)(C)O)s2)CCC3)ccn1 [Example 784, (R)-2-(2-hydroxypropan-2-yl)-N′-((5-(2-methoxypyridin-4-yl)-2,3-dihydro-1H-inden-4-yl)carbamoyl)thiazole-5-sulfonimidamide]

- IC50 [5]: 40 to 200 nM
Compound: CC(C)(O)c1sc(S(N)(=O)=NC(=O)Nc2c3c(cc4c2CCC4)CCC3)cc1-c1ccccc1 (single isomer, unassigned) [Example 802, (R) or (S)-N′-((1,2,3,5,6,7-hexahydro-s-indacen-4-yl)carbamoyl)-5-(2-hydroxypropan-2-yl)-4-phenylthiophene-2-sulfonimidamide]

- IC50 [5]: 1000 to 5000 nM
Compound: CC(C)(O)c1nc(CO)c(S(N)(=O)=NC(=O)Nc2c3c(cc4c2C(=O)CC4)CCC3)s1 (single isomer, unassigned) [Example 808, (R) or (S)-4-(hydroxymethyl)-2-(2-hydroxypropan-2-yl)-N′-((3-oxo-1,2,3,5,6,7-hexahydro-s-indacen-4-yl)carbamoyl)thiazole-5-sulfonimidamide]

- IC50 (Homo sapiens, THP-1, hTHP-1 assay containing 2% fetal bovine serum, Table B2, given as bound, read-out: IC50): > 30000 nM
Compound: CC(C)(O)c1cnc(S(N)(=O)=NC(=O)Nc2c3c(cc4c2CCC4=O)CCC3)s1 (single isomer, unassigned) [Example 588, (S) or (R)-5-(2-hydroxypropan-2-yl)-N′-((1-oxo-1,2,3,5,6,7-hexahydro-s-indacen-4-yl)carbamoyl) thiazole-2-sulfonimidamide]

- IC50 [5]: 40 to 200 nM
Compound: CC(C)(CO)c1ncc(S(N)(=O)=NC(=O)Nc2c3c(c(C#N)c4c2CCC4)CCC3)s1 (single isomer, unassigned) [Example 830, (R) or (S)-N′-((8-cyano-1,2,3,5,6,7-hexahydro-s-indacen-4-yl)carbamoyl)-2-(1-hydroxy-2-methylpropan-2-yl)thiazole-5-sulfonimidamide]

- IC50 [5]: > 30000 nM
Compound: CC(C)n1nc(S(N)(=O)=NC(=O)Nc2c3c(cc4c2C(=O)CC4)CCC3)cc1C(C)(C)O (single isomer, unassigned) [Example 806, (S) or (R)-5-(2-hydroxypropan-2-yl)-1-isopropyl-N′-((3-oxo-1,2,3,5,6,7-hexahydro-5-indacen-4-yl)carbamoyl)-1H-pyrazole-3-sulfonimidamide]

- IC50 [2]: > 30000 nM
Compound: NS(=O)(=NC(=O)Nc1c2c(cc3c1CCC3)CCC2)c1ccc(C2CCNC2)cc1F (single isomer, unassigned) [Example 623, (S,S) or (R,S)-2-fluoro-N′-((1,2,3,5,6,7-hexahydro-s-indacen-4-yl)carbamoyl)-4-(- pyrrolidin-3-yl) benzenesulfonimidamide]

- IC50 [5]: 1000 to 5000 nM
Compound: COCCOC[C@@](C)(O)c1ncc(S(N)(=O)=NC(=O)Nc2c3c(cc4c2CCC4)CCC3)s1 (single isomer, unassigned) [Example 793, (S) or (R)-N′-((1,2,3,5,6,7-hexahydro-s-indacen-4-yl)carbamoyl)-2-((R)-2-hydroxy-1-(2-methoxyethoxy)propan-2-yl)thiazole-5-sulfonimidamide]

- IC50 [4]: 1000 to 5000 nM
Compound: CC(C)(O)c1cccc(S(N)(=O)=NC(=O)Nc2c3c(cc4c2CCC4)CCC3)n1 (centres unmarked) [Example 763, N′-((1,2,3,5,6,7-hexahydro-s-indacen-4-yl)carbamoyl)-6-(2-hydroxypropan-2-yl)pyridine-2-sulfonimidamide]

- IC50 [5]: 5000 to 30000 nM
Compound: NS(=O)(=NC(=O)Nc1c2c(cc3c1CCC3)CCC2)c1cc2c(s1)CCOC2 (single isomer, unassigned) [Example 790, (S) or (R)-N′-((1,2,3,5,6,7-hexahydro-s-indacen-4-yl)carbamoyl)-6,7-dihydro-4H-thieno[3,2-c]pyran-2-sulfonimidamide]

- IC50 [5]: 200 to 1000 nM
Compound: NS(=O)(=NC(=O)Nc1c2c(cc3c1CC3)CCC2)c1cc2c(s1)CCNC2 (single isomer, unassigned) [Example 717]

- IC50 [1]: 200 to 1000 nM
Compound: CN(C)C(c1ccc(S(N)(=O)=NC(=O)Nc2c3c(cc4c2CCC4)CCC3)cc1)C1CC1 (single isomer, unassigned) [Example 660]

- IC50 [1]: 200 to 1000 nM
Compound: CN(C)C(c1ccc(S(N)(=O)=NC(=O)Nc2c3c(cc4c2CCC4)CCC3)cc1)C1CC1 (single isomer, unassigned) [Example 662]

- IC50 [5]: 8 to 40 nM
Compound: NS(=O)(=NC(=O)Nc1c2c(cc3c1CC3)CCC2)c1sc2c(c1F)CNCC2 (single isomer, unassigned) [Example 833, (R) or (S)-3-fluoro-N′-((2,4,5,6-tetrahydro-1H-cyclobuta[f]inden-3-yl)carbamoyl)-4,5,6,7-tetrahydrothieno[3,2-c]pyridine-2-sulfonimidamide]

- IC50 [5]: 1000 to 5000 nM
Compound: NS(=O)(=NC(=O)Nc1c2c(cc3c1CCC3)CCC2)c1ccc([C@@H]2CCCN2)s1 (single isomer, unassigned) [Example 822, (S) or (R) -N′-((1,2,3,5,6,7-hexahydro-s-indacen-4-yl)carbamoyl)-5-((S)-pyrrolidin-2-yl)thiophene-2-sulfonimidamide]

- IC50 [4]: 5000 to 30000 nM
Compound: CN1CCC(c2ccc(S(N)(=O)=NC(=O)Nc3c4c(cc5c3CCC5)CCC4)c(F)c2)C1 (centres unmarked) [compound 776, 2-Fluoro-N′-((1,2,3,5,6,7-hexahydro-s-indacen-4-yl)carbamoyl)-4-(1-methylpyrrolidin-3-yl)benzenesulfonimidamide]

- IC50 [4]: 200 to 1000 nM
Compound: C[C@@](O)(CO)c1ncc(S(N)(=O)=NC(=O)Nc2c3c(cc4c2C(=O)CC4)CCC3)s1 (stereo partly drawn) [Example 743, 2-((R)-1,2-dihydroxypropan-2-yl)-N′-((3-oxo-1,2,3,5,6,7-hexahydro-s-indacen-4-yl)carbamoyl)thiazole-5-sulfonimidamide]
